Results reported in patent US20240393292A1, “ALLERGY ANTIGEN AND EPITOPE THEREOF” (HOYU CO., LTD., priority 2019, published 2024).

Tested on: IgE antibodies from patients
Test: Wheat epitope mapping (2): overlapping 10-amino-acid peptide fragments shifted by one amino acid;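 for Rank of partial sequence as epitope binding to IgE antibody: key = sequence deemed particularly important within the common 15-residue sequence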;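 for epitope sequence binding to IgE antibody, rank (Key/Preferably/More preferably): key of grades: preferably = shorter partial sequence still acting as epitope; more preferably = sequence improving IgE binding; key = particularly important sequence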
Assay type: binding, human
How it was run: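 Cellulose-bound 10-mer peptides offset by one residue were probed with patient serum IgE and detected by chemiluminescence. Secondary-antibody-only signals were subtracted per peptide. Residual binding was expressed as % of the parent overlapping peptide, scored as none (<30%), poor (30–<50%), somewhat poor (50–<70%) or retained (≥70%).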

[1] = serum of patient P52 (child, general immediate type allergy to wheat)
[2] = serum of patient P3 (WDEIA), sequence without X
[3] = serum of patient P53 (child, general immediate type allergy to wheat), sequence without X
[4] = serum of patient G7 (adult, general immediate type allergy to wheat), partial sequence
[5] = serum of patient P16 (WDEIA), sequence without X
[6] = serum of patient P34 (WDEIA), sequence without X
[7] = serum of patient P29 (WDEIA), sequence without X
[8] = serum of patient P21 (WDEIA), sequence without X

1451 (LQPQQPISQ; REGION 1..9: note = epitope) [compound 1451]
Rank of partial sequence as epitope binding to IgE antibody (serum of patient P22 (WDEIA), sequence without X): More preferably

1623 (YNPD; REGION 1..4: note = epitope) [compound 1623]
Rank of partial sequence as epitope binding to IgE antibody (serum of patient P25 (WDEIA), sequence without X): Key

2586 (LQQSTYQL; REGION 1..8: note = epitope) [compound 2586]
Epitope sequence binding to IgE antibody, rank of the sequence (serum of patient P32 (WDEIA), partial sequence): Key

2736 (YKIGGIGTVP; REGION 1..10: note = epitope) [compound 2736]
Epitope sequence binding to IgE antibody, rank of the sequence (serum of patient P30 (WDEIA), partial sequence): Preferably

1739 (KEAANFT; REGION 1..7: note = epitope) [compound 1739]
epitope sequence binding to IgE antibody, rank (Key/Preferably/More preferably) (serum of patient G1 (adult, general immediate type allergy to wheat)): Preferably

1728 (KEAANF; REGION 1..6: note = epitope) [compound 1728]
epitope sequence binding to IgE antibody, rank (Key/Preferably/More preferably) [1]: Key

1875 (TVRTLQRTV; REGION 1..9: note = epitope) [compound 1875]
epitope sequence binding to IgE antibody, rank (Key/Preferably/More preferably) (serum of patient P31 (WDEIA)): More preferably

1654 (YNPDKVPF; REGION 1..8: note = epitope) [compound 1654]
Rank of partial sequence as epitope binding to IgE antibody (serum of patient P51 (child, general immediate type allergy to wheat), sequence without X): Key

2625 (ASLSKRV; REGION 1..7: note = epitope) [compound 2625]
Epitope sequence binding to IgE antibody, rank of the sequence (serum of patient G3 (adult, general immediate type allergy to wheat), partial sequence): Preferably

1409 (QPQQPISQQQ; REGION 1..10: note = epitope) [compound 1409]
Epitope sequence binding to IgE antibody, rank of the sequence [2]: Preferably

1688 (KEAA; REGION 1..4: note = epitope) [compound 1688]
Rank of partial sequence as epitope binding to IgE antibody (serum of patient P14 (WDEIA), sequence without X): Key

1291 (LPRS; REGION 1..4: note = epitope) [compound 1291]
Epitope sequence binding to IgE antibody, rank of the sequence [3]: Key

1380 (PWQQQPLPPQ; REGION 1..10: note = epitope) [compound 1380]
Epitope sequence binding to IgE antibody, rank of the sequence (serum of patient P10 (WDEIA), sequence without X): Key

2609 (QLVQQLCC; REGION 1..8: note = epitope) [compound 2609]
Epitope sequence binding to IgE antibody, rank of the sequence [4]: Key

1177 (QQFPPQ; REGION 1..6: note = epitope) [compound 1177]
Epitope sequence binding to IgE antibody, rank of the sequence (serum of patient P8 (WDEIA), sequence without X): Key

1923 (QQFPGQQQ; REGION 1..8: note = epitope) [compound 1923]
epitope sequence binding to IgE antibody, rank (Key/Preferably/More preferably) (serum of patient P12 (WDEIA)): Preferably

2693 (YKGPTL; REGION 1..6: note = epitope) [compound 2693]
Epitope sequence binding to IgE antibody, rank of the sequence (serum of patient P34 (WDEIA), partial sequence): Key

1437 (PQQPISQQQA; REGION 1..10: note = epitope) [compound 1437]
Rank of partial sequence as epitope binding to IgE antibody [5]: Preferably

1431 (YLQPQQP; REGION 1..7: note = epitope) [compound 1431]
Rank of partial sequence as epitope binding to IgE antibody (serum of patient P15 (WDEIA), sequence without X): Key

1484 (YLQPQQP; REGION 1..7: note = epitope) [compound 1484]
Rank of partial sequence as epitope binding to IgE antibody [6]: Key

1783 (KVGYNP; REGION 1..6: note = epitope) [compound 1783]
epitope sequence binding to IgE antibody, rank (Key/Preferably/More preferably) (serum of patient G4 (adult, general immediate type allergy to wheat)): Key

1904 (QVPLVQQ; REGION 1..7: note = epitope) [compound 1904]
epitope sequence binding to IgE antibody, rank (Key/Preferably/More preferably) (serum of patient P4 (WDEIA)): Preferably

1832 (KELE; REGION 1..4: note = epitope) [compound 1832]
epitope sequence binding to IgE antibody, rank (Key/Preferably/More preferably) (serum of patient G7 (adult, general immediate type allergy to wheat)): Key

2713 (KIGG; REGION 1..4: note = epitope) [compound 2713]
Epitope sequence binding to IgE antibody, rank of the sequence (serum of patient P17 (WDEIA), partial sequence): Key

2234 (RNYR; REGION 1..4: note = epitope) [compound 2234]
Epitope sequence binding to IgE antibody, rank of the sequence (Key/Preferably/More preferably) [7]: Key

1287 (ILPRS; REGION 1..5: note = epitope) [compound 1287]
Epitope sequence binding to IgE antibody, rank of the sequence (serum of patient P50 (child, general immediate type allergy to wheat), sequence without X): Key

1729 (ANFTSQVIIM; REGION 1..10: note = epitope) [compound 1729]
epitope sequence binding to IgE antibody, rank (Key/Preferably/More preferably) [1]: Preferably

1722 (KEAANFT; REGION 1..7: note = epitope) [compound 1722]
epitope sequence binding to IgE antibody, rank (Key/Preferably/More preferably) (serum of patient P50 (child, general immediate type allergy to wheat)): Preferably

1877 (TLQR; REGION 1..4: note = epitope) [compound 1877]
epitope sequence binding to IgE antibody, rank (Key/Preferably/More preferably) (serum of patient P31 (WDEIA)): Key

1483 (YLQPQQPIS; REGION 1..9: note = epitope) [compound 1483]
Rank of partial sequence as epitope binding to IgE antibody [6]: Preferably

1509 (QVPLVQQ; REGION 1..7: note = epitope) [compound 1509]
Rank of partial sequence as epitope binding to IgE antibody [2]: Preferably

1235 (PQQPP; REGION 1..5: note = epitope) [compound 1235]
Epitope sequence binding to IgE antibody, rank of the sequence (serum of patient P17 (WDEIA), sequence without X): Key

1394 (QPLP; REGION 1..4: note = epitope) [compound 1394]
Epitope sequence binding to IgE antibody, rank of the sequence [8]: Key

1778 (KVGY; REGION 1..4: note = epitope) [compound 1778]
epitope sequence binding to IgE antibody, rank (Key/Preferably/More preferably) (serum of patient G2 (adult, general immediate type allergy to wheat)): Key

2672 (RFEKEAAEMN; REGION 1..10: note = epitope) [compound 2672]
Epitope sequence binding to IgE antibody, rank of the sequence [4]: Key

1173 (QQQQFPPQQP; REGION 1..10: note = epitope) [compound 1173]
Epitope sequence binding to IgE antibody, rank of the sequence (serum of patient P7 (WDEIA), sequence without X): Preferably

2722 (YKIGG; REGION 1..5: note = epitope) [compound 2722]
Epitope sequence binding to IgE antibody, rank of the sequence (serum of patient P26 (WDEIA), partial sequence): Preferably

1658 (KVPFVPISG; REGION 1..9: note = epitope) [compound 1658]
Rank of partial sequence as epitope binding to IgE antibody (serum of patient P54 (child, general immediate type allergy to wheat), sequence without X): Key

2480 (KAWSG; REGION 1..5: note = epitope) [compound 2480]
Epitope sequence binding to IgE antibody, rank of the sequence (Key/Preferably/More preferably) (serum of patient G2 (adult, general immediate type allergy to wheat), sequence without X): Key

1250 (PQQPP; REGION 1..5: note = epitope) [compound 1250]
Epitope sequence binding to IgE antibody, rank of the sequence (serum of patient P33 (WDEIA), sequence without X): Key

2606 (QLVQQL; REGION 1..6: note = epitope) [compound 2606]
Epitope sequence binding to IgE antibody, rank of the sequence (serum of patient G5 (adult, general immediate type allergy to wheat), partial sequence): Key

1968 (QFPGQQ; REGION 1..6: note = epitope) [compound 1968]
epitope sequence binding to IgE antibody, rank (Key/Preferably/More preferably) (serum of patient P34 (WDEIA)): Key

2384 (YVTEIVL; REGION 1..7: note = epitope) [compound 2384]
Epitope sequence binding to IgE antibody, rank of the sequence (Key/Preferably/More preferably) [7]: Preferably

1656 (NPDKVPFV; REGION 1..8: note = epitope) [compound 1656]
Rank of partial sequence as epitope binding to IgE antibody [3]: Key

1434 (YLQPQQPI; REGION 1..8: note = epitope) [compound 1434]
Rank of partial sequence as epitope binding to IgE antibody [5]: Preferably

1912 (QVPLVQQQ; REGION 1..8: note = epitope) [compound 1912]
epitope sequence binding to IgE antibody, rank (Key/Preferably/More preferably) (serum of patient P8 (WDEIA)): Preferably

1920 (LVQQQQFPGQ; REGION 1..10: note = epitope) [compound 1920]
epitope sequence binding to IgE antibody, rank (Key/Preferably/More preferably) (serum of patient P10 (WDEIA)): Key

1711 (KEAANFT; REGION 1..7: note = epitope) [compound 1711]
epitope sequence binding to IgE antibody, rank (Key/Preferably/More preferably) (serum of patient P34 (WDEIA)): Preferably

1418 (YLQPQQPISQ; REGION 1..10: note = epitope) [compound 1418]
Epitope sequence binding to IgE antibody, rank of the sequence (serum of patient P9 (WDEIA), sequence without X): Preferably

1543 (QVPLVQQ; REGION 1..7: note = epitope) [compound 1543]
Rank of partial sequence as epitope binding to IgE antibody [8]: Preferably

2377 (YVTEIV; REGION 1..6: note = epitope) [compound 2377]
Epitope sequence binding to IgE antibody, rank of the sequence (Key/Preferably/More preferably) (serum of patient P27 (WDEIA), sequence without X): Key

1288 (LPRS; REGION 1..4: note = epitope) [compound 1288]
Epitope sequence binding to IgE antibody, rank of the sequence (serum of patient P52 (child, general immediate type allergy to wheat), sequence without X): Key

1888 (TVRTLQRT; REGION 1..8: note = epitope) [compound 1888]
epitope sequence binding to IgE antibody, rank (Key/Preferably/More preferably) (serum of patient G5 (adult, general immediate type allergy to wheat)): Key
